Literature values, collected in patent publication US20060104952A1, “Genomic barrier to viral disease” (priority 2004, published 2006).

Test system: genes
Conditions: ref 10 (CoQ10 supplementation, human skeletal muscle)

COC1=C(OC)C(=O)C(C/C=C(\C)CC/C=C(\C)CC/C=C(\C)CC/C=C(\C)CC/C=C(\C)CC/C=C(\C)CC/C=C(\C)CC/C=C(\C)CC/C=C(\C)CCC=C(C)C)=C(C)C1=O [coenzyme Q10]
number of genes whose expression is influenced: at least 115 genes
